Consider 29 compounds from US8188089B2, “Tylophorine analogs as antitumor agents” (The University of North Carolina at Chapel Hill, priority 2006, dated 2012).

Data set [1] has as its system human A549 lung cancer cell line. Kind of data set: Cell growth inhibition assay (SRB), Example 1. It is filed as cell-based. As to conditions: for EC50: table footnotes of Example 1, A549; for IC50: 72 h, A549, SRB, 3 days exposure. An excerpt:
Results and discussion. […] Etoposide (VP-16) was used as the reference compound.
Cell Growth Inhibition Assay. The human A549 lung cancer cell line was used for the cytotoxicity screening of PBT derivatives using the cell-based sulforhodamine B (SRB) microtitre plate assay. […] Duration of compound exposure was 3 days.

For data set [2] the test system is unchanged. The data set can be described thus: Cell growth inhibition assay (SRB), Example 2, A549. It is filed as cell-based. An excerpt:
Cell Growth Inhibition Assay. The sulforhodamine B assay was used according to the procedures developed and validated at NCI. […] The values were interpolated from dose-response data.

In data set [3] the test system is KB (nasopharyngeal). Kind of data set: Cell growth inhibition assay (SRB), Example 2, KB. It is filed as cell-based, human. As to conditions: Table 6, 72-h continuous treatment. The source says: (§1) Drug-Resistance Study. Twelve active compounds [including four hydrochloride salts (18b, 22b, 24b, 32b) of corresponding active free bases (18a, 22a, 24a, 32a)] were further screened against an extended panel of human tumor cell lines including DU-145 (prostate), ZR-751 (breast), KB (nasopharyngeal), and KB-VIN (multidug-resistant KB subline) in order to explore their antitumor spectra and drug-resistance profiles. Four compounds were used as reference compounds. Antofine is a positional isomer of tylophorine isolated from Asclepiadaceae by Dr. T. S. Wu in Taiwan (Wu, P. L. et al., Heterocycles 2002; 57:2401). […] Doxorubicin (Adriamycin), vincristine, and etoposide (VP-16, Vepesid®) are widely used anticancer agents for treating a range of solid tumors.
(§2) Cell Growth Inhibition Assay. The sulforhodamine B assay was used according to the procedures developed and validated at NCI. The in vitro anticancer activities are expressed as ED50 values, which is the test compound concentration (μM) that reduced the cell number by 50% after 72-h of continuous treatment. The values were interpolated from dose-response data. Each test was performed in triplicate with variation less than 5%. The ED50 values determined in each of independent tests varied less than 10%. Compound stock solutions were prepared in DMSO with the final solvent concentration ≦1% DMSO (v/v), a concentration without effect on cell replication. The cells were cultured at 37° C. in RPMI-1640 supplemented with 25 mM N-2-hydroxyethylpiperazine-N′-2-ethanesulfonic acid (HEPES), […], 10% (v/v) fetal bovine serum, and 100 μg/mL kanamycin in a humidified atmosphere containing 5% CO2.

Data set [4] relates to ZR-751 (breast). Kind of data set: Cell growth inhibition assay (SRB), Example 2, ZR-751. It is filed as cell-based, human. Conditions: Table 6, 72-h continuous treatment.
From the text: as §1, §2

Data set [5] relates to DU-145 (prostate). The data set can be described thus: Cell growth inhibition assay (SRB), Example 2, DU-145. It is filed as cell-based, human. As to conditions: Table 6, 72-h continuous treatment.
From the text: as §1, §2

Data set [6] concerns KB-VIN (multidug-resistant KB subline). The data set can be described thus: Cell growth inhibition assay (SRB), Example 2, KB-VIN. It is filed as cell-based, human. As to conditions: Table 6, 72-h continuous treatment.
From the text: as §1, §2

Where [7] appears, read: Table 4, ED50, 72-h continuous treatment, NA = not active, read-out: A549 (μM), in vitro anticancer activity against A549 lung cancer cells.
Where [8] appears, read: Table 6, 72-h continuous treatment, read-out: EC50 (μM) A549.
The mark [9] stands for this setting: Homo sapiens, Table 1, NA = Not Active.
[10] abbreviates: Homo sapiens, A549, 72 h, Table 4, ED50, 72-h continuous treatment, NA = not active, read-out: A549 (μM), in vitro anticancer activity against A549 lung cancer cells.
Where [11] appears, read: Homo sapiens, A549, 72 h, Table 6, 72-h continuous treatment, read-out: EC50 (μM) A549.

Counter-ions that a name gives are not always drawn. Bounds are passed on as bounds.

As for `COc1ccc2c(CN3CCCC[C@H]3CO)cc3cc(OC)c(OC)cc3c2c1` [Compound 38, N-(2,3,6-Trimethoxyphenanthr-9-ylmethyl)-L-2-piperidinemethanol], in data set [1], the EC50 was 6300 nM.
With `COc1ccc2c3c(c4cc(OC)c(OC)cc4c2c1)C[C@H]1CCCN1C3` [Antofine, reference compound], the EC50 in data set [2] (setting [7]) amounted to 0.008 µM; in data set [2] (setting [8]), 0.008 µM; in data set [3] it was 0.013 µM; in data set [4], 0.008 µM; in data set [5], 0.009 µM; in data set [6], 0.009 µM.
In turn, `COc1ccc(/C(=C\c2cc(OC)c(OC)cc2[N+](=O)[O-])CN2CCC[C@H]2C(=O)O)cc1` [Compound 40, 1-[3-(4,5-Dimethoxy-2-nitrophenyl)-2-(4-methoxyphenyl)-allyl]-pyrrolidine-2-carboxylic acid] yielded an IC50 in data set [1] (Homo sapiens, Table 3) of 45200 nM.
Regarding `O=C(O)CCCCCNCc1cc2cc3c(cc2c2cc(OCc4ccccc4)ccc12)OCO3` [Compound 12, N-(2,3-Methylenedioxy-6-benzyloxy-phenanthr-9-ylmethyl)-6-aminohexanoic acid], the melting point fell in the range of 184 to 186 °C. For the same compound, in data set [1] (setting [9]), inhibition was half-maximal at 1600 nM (IC50).
In the case of `COc1ccc2c(CN3CCCC[C@H]3CO)cc3cc4c(cc3c2c1)OCO4` [Compound 18a, N-(2,3-Methylenedioxy-6-methoxy-phenanthr-9-ylmethyl)-L-2-piperidinemethanol], the figures for the EC50 in data set [2] (setting [8]), in data set [4] and in data set [5] were 0.2 µM, 0.1 µM and 0.21 µM, respectively.
On to `COc1ccc(/C(=C\c2cc(OC)c(OC)cc2[N+](=O)[O-])CN2CCC[C@H]2CO)cc1` [Compound 41, {1-[3-(4,5-Dimethoxy-2-nitrophenyl)-2-(4-methoxyphenyl)-allyl]-pyrrolidin-2-yl}-methanol], for which, in data set [1] (Homo sapiens, Table 3), the IC50 was determined as 11700 nM.
As to `CC[C@]1(O)C[C@H]2CN(CCc3c([nH]c4ccccc34)[C@@](C(=O)OC)(c3cc4c(cc3OC)N(C=O)[C@H]3[C@@](O)(C(=O)OC)[C@H](OC(C)=O)[C@]5(CC)C=CCN6CC[C@]43[C@@H]65)C2)C1` [Vincristine, reference compound], the EC50 was determined as 0.04 µM in data set [2] (setting [10]); 0.04 µM in data set [2] (setting [11]); 0.006 µM in data set [3] (Homo sapiens, 72 h); 0.04 µM in data set [4] (Homo sapiens, ZR-75-1, 72 h); 0.085 µM in data set [5] (Homo sapiens, DU-145, 72 h); 5.3 µM in data set [6] (Homo sapiens, KBVIN, 72 h).
As to `CC[C@H]1CN2CCc3cc(OC)c(OC)cc3[C@@H]2C[C@@H]1C[C@H]1NCCc2cc(OC)c(OC)cc21` [Emetine, reference compound], the EC50 is 0.04 µM in data set [2] (setting [10]); 0.04 µM in data set [2] (setting [11]); 0.04 µM in data set [3] (Homo sapiens, 72 h); 0.1 µM in data set [4] (Homo sapiens, ZR-75-1, 72 h); 0.06 µM in data set [5] (Homo sapiens, DU-145, 72 h); more than 2 µM in data set [6] (Homo sapiens, KBVIN, 72 h).
Turning to `CCCCCC(CCCCCO)NCc1cc2cc3c(cc2c2cc(OC)ccc12)OCO3` (stereo not shown), the melting point lay within 122 to 124 °C.
In the case of `COc1ccc(/C(=C\c2ccc(OC)c(OC)c2)CN2CCC[C@H]2CO)cc1` [Compound 42, {1-[3-(3,4-Dimethoxyphenyl)-2-(4-methoxyphenyl)allyl]-pyrrolidin-2-yl}-methanol], the IC50 in data set [1] (Homo sapiens, Table 3) came out at 52200 nM.
Regarding `COc1ccc2c(CNCCCCCCCCCCC(=O)O)cc3cc4c(cc3c2c1)OCO4`, the melting point is 146 to 148 °C.
As for `O=C(O)[C@@H]1CCCN1C(=O)c1cc2cc3c(cc2c2cc(O)ccc12)OCO3` [Compound 22, N-(2,3-Methylenedioxy-6-hydroxy-phenanthr-9-ylcarbonyl)-L-proline], the melting point fell in the range of 230 to 231 °C. In data set [1] (setting [9]), this compound came in with an IC50 of 39700 nM.
On to `COc1ccc2c(CNCCCCCO)cc3cc4c(cc3c2c1)OCO4`, for which the melting point was 125 to 126 °C.
As to `COc1ccc(/C(=C\c2cc(OC)c(OC)cc2[N+](=O)[O-])C(=O)N2CCC[C@H]2C(=O)O)cc1` [Compound 39, 1-[3-(4,5-Dimethoxy-2-nitrophenyl)-2-(4-methoxyphenyl)-acryloyl]-pyrrolidine-2-carboxylic acid], in data set [1] (Homo sapiens, Table 3), 80000 nM corresponded to half-maximal inhibition (IC50).
For the compound `CC(CCCCO)NCc1cc2cc3c(cc2c2cc(OCc4ccccc4)ccc12)OCO3` (stereo not shown), the melting point fell in the range of 175 to 177 °C.
As to `O=C(O)CCCCCNC(=O)c1cc2cc3c(cc2c2cc(OCc4ccccc4)ccc12)OCO3` [Compound 11, N-(2,3-methylenedioxy-6-benzyloxy-phenanthr-9-ylcarbonyl)-6-aminohexanoic acid], the melting point is 198 to 200 °C. This compound returned an IC50 in data set [1] (setting [9]) of 41200 nM.
In turn, `COc1ccc2c(CNCCCCCC(=O)O)cc3cc4c(cc3c2c1)OCO4` returned a melting point of 167 to 169 °C.
The same measure, in the same setting: the same measure for `O=C(O)CCCCNCc1cc2cc3c(cc2c2cc(OCc4ccccc4)ccc12)OCO3`: 197 to 199 °C.
In data set [1] (setting [9]), `COC(=O)CCCCCNC(=O)c1cc2cc3c(cc2c2cc(OCc4ccccc4)ccc12)OCO3` [Compound 10, Methyl N-(2,3-methylenedioxy-6-benzyloxy-phenanthr-9-ylcarbonyl)-6-aminohexanoate] returned an IC50 of 41200 nM.
`O=C(O)c1cc2cc3c(cc2c2cc(OCc4ccccc4)ccc12)OCO3` [Compound 7a, 2,3-Methylenedioxy-6-benzyloxy-phenanthrene-9-carboxylic acid] returned a melting point of 263 to 265 °C.
On the same count and under the same terms, the same measure for `COc1ccc2c(CNCCCCCC(=O)O)cc3cc(OC)c(OC)cc3c2c1`: 133 to 134 °C.
In turn, `COc1ccc2c(CN3CCCC[C@H]3C(=O)O)cc3cc(OC)c(OC)cc3c2c1` [Compound 37, N-(2,3,6-Trimethoxyphenanthr-9-ylmethyl)-L-2-piperidinecarboxylic acid] returned an EC50 in data set [1] of 9700 nM.
With `COc1ccc2c(CN3CCC(CO)CC3)cc3cc4c(cc3c2c1)OCO4` [Compound 24a, N-(2,3-Methylenedioxy-6-methoxy-phenanthr-9-ylmethyl)-L-4-piperidinemethanol], the EC50 in data set [2] (setting [7]) worked out at 0.08 µM; in data set [2] (setting [8]), 0.08 µM; in data set [3] it was 0.24 µM; in data set [4] it was 0.03 µM; in data set [5] it was 0.03 µM; in data set [6], 0.09 µM.
The compound `O=C(O)[C@@H]1CCCN1Cc1cc2cc3c(cc2c2cc(OCc4ccccc4)ccc12)OCO3` [Compound 18, N-(2,3-Methylenedioxy-6-benzyloxy-phenanthr-9-ylmethyl)-L-proline] registered a melting point of 147 to 149 °C. This compound also showed an IC50 in data set [1] (setting [9]) of 4400 nM. Moreover, the EC50 in data set [1] (Homo sapiens) came out at 4400 nM.
In turn, `COc1ccc2c(CNCCCCC(=O)O)cc3cc4c(cc3c2c1)OCO4` gave a melting point of 145 to 146 °C.
On to `COc1ccc2c(C(=O)O)cc3cc(OC)c(OC)cc3c2c1` [Compound 7c, 2,3,6-Trimethoxyphenanthrene-9-carboxylic acid], for which the melting point is 241 to 243 °C.
Consider `COc1ccc2c(CN3CCCC[C@H]3CO)cc3cc4c(cc3c2c1)OCO4` [Compound 18b, N-(2,3-Methylenedioxy-6-methoxy-phenanthr-9-ylmethyl)-L-2-piperidinemethanol hydrochloride], for which the EC50 in data set [2] (setting [8]) worked out at 0.16 µM; in data set [3] it was 0.12 µM; in data set [4], 0.08 µM; in data set [5], 0.09 µM; in data set [6], 0.09 µM.
As to `COc1ccc2c(CN3CCC[C@H]3CO)cc3cc4c(cc3c2c1)OCO4` [Compound 32, N-(2,3-Methylenedioxy-6-methoxy-phenanthr-9-ylmethyl)-L-prolinol], the melting point fell in the range of 138 to 139 °C. In data set [1] (setting [9]), this compound came in with an IC50 of 700 nM.
For the compound `COc1ccc2c(C(=O)O)cc3cc4c(cc3c2c1)OCO4` [Compound 7b, 2,3-Methylenedioxy-6-methoxy-phenanthrene-9-carboxylic acid], the melting point lay within 293 to 295 °C.
